Target: human orexin type 2 receptor (hOX2R) (Homo sapiens (Human), UniProt O43614)
Test: Measurement of orexin type 2 receptor agonist activity (Experimental Example 2-1, FLIPR TETRA, intracellular Ca2+)
Format: cell-based
Conditions: CHO dhfr- cells expressing hOX2R; for Emax at 30 µM: value at 30 uM concentration, orexin B as full agonist = 100%; for Emax: read-out: Emax (%)
Excerpt: To obtain a cell clone stably expressing human orexin type 2 receptor, human orexin type 2 receptor cDNA was inserted into pcDNA3.1(+) plasmid vector (Invitrogen), and a plasmid DNA for expression of human orexin type 2 receptor (pcDNA3.1(+)/hOX2R) was cloned. The plasmid DNA was introduced into CHO-dhfr cell by an electroporation method, and human orexin type 2 receptor expressing clone cells were obtained by limiting dilution method by using G418 drug resistance as a selection marker.
Chinese hamster ovary (CHO) dhfr-cells forcibly expressing human orexin type 2 receptor (hOX2R) were seeded in each well of Black clear bottom plate (384 wells) (Becton, Dickinson and Company) by 10,000 cells, and cultured for 16 hr in an MEM-alpha (Nikken-Bio Co., Ltd.) medium containing 100 U/ml penicillin, 100 μg/ml streptomycin, […] G418 (all above Invitrogen), and 10% fetal calf serum (Thermo), under the conditions of 37° C., 5% CO2. […] A test compound was dissolved in dimethyl sulfoxide to 10 mM, and then diluted with assay buffer 2 (20 mM HEPES, Hanks' balanced salt solution (Invitrogen), 0.1% bovine serum albumin). For the reaction, a test compound solution (10 μL) was added using Fluorescent Imaging Plate Reader TETRA (FLIPR TETRA; manufactured by Molecular Devices), a fluorescence value (excitation wavelength 488 nm, measurement wavelength 570 nm) of each well was measured every one second for 1 min, and the agonist activity was determined using the area of the fluorescence value as an indicator of intracellular Ca^2+ concentration.

[1] = agonist activity, 10 nM human orexin B = 100%

Chain of human orexin type 2 receptor (hOX2R) (O43614 whole entry): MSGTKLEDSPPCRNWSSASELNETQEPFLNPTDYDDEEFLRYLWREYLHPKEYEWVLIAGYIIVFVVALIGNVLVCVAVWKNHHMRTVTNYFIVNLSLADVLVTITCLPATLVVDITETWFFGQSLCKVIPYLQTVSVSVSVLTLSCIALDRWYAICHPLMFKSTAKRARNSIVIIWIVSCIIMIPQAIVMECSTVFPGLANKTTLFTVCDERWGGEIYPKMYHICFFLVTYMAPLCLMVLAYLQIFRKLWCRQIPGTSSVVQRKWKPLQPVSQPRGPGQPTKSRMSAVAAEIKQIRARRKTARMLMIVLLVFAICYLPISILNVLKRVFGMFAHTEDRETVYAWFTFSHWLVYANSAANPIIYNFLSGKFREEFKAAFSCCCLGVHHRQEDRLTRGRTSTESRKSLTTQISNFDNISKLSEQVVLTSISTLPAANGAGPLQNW

CS(=O)(=O)N[C@H]1CCCN(C(=O)C2CC2)[C@H]1CO[C@H]1CC[C@@H](c2cccc(F)c2)CC1 [Example 16, N-((2R,3S)-1-(cyclopropylcarbonyl)-2-(((cis-4-(3-fluorophenyl)cyclohexyl)oxy)methyl)piperidin-3-yl)methanesulfonamide]
EC50 [1]: 0.84 nM | Emax at 30 µM: 99%

CCNC(=O)N1CCC[C@H](NS(C)(=O)=O)[C@@H]1CO[C@H]1CC[C@@H](c2ccn(C)n2)CC1 (relative stereo) [Example 159, cis-N-ethyl-2-(((cis-4-(1-methyl-1H-pyrazol-3-yl)cyclohexyl)oxy)methyl)-3-((methylsulfonyl)amino)piperidine-1-carboxamide]
EC50 (FLIPR TETRA, Fluo-4AM): 140 nM | Emax (FLIPR TETRA, Fluo-4AM): 96%

CCNC(=O)N1CCC[C@H](NS(C)(=O)=O)[C@@H]1CO[C@H]1CC[C@@H](c2ccccc2C#N)CC1 (relative stereo) [Example 263, cis-2-(((cis-4-(2-cyanophenyl)cyclohexyl)oxy)methyl)-N-ethyl-3-((methylsulfonyl)amino)piperidine-1-carboxamide]
EC50 (FLIPR TETRA, Fluo-4AM): 57 nM | Emax (FLIPR TETRA, Fluo-4AM): 88%

CC(=O)N1CCC[C@H](NS(C)(=O)=O)[C@@H]1CO[C@H]1CC[C@@H](c2ccccc2C)CC1 [Example 319, N-((2R,3S)-1-acetyl-2-(((cis-4-(2-methylphenyl)cyclohexyl)oxy)-methyl)piperidin-3-yl)methanesulfonamide]
EC50 (FLIPR TETRA, Fluo-4AM): 29 nM | Emax (FLIPR TETRA, Fluo-4AM): 106%

CCNS(=O)(=O)N[C@H]1CCCN(C(C)=O)[C@H]1CO[C@H]1CC[C@@H](C(C)C)CC1 (relative stereo) [Example 79, N-(cis-1-acetyl-2-(((cis-4-isopropylcyclohexyl)oxy)methyl)piperidin-3-yl)-N′-ethylsulfuric diamide]
EC50 [1]: 330 nM | Emax at 30 µM: 85%

CC(C)[C@H]1CC[C@@H](OC[C@H]2[C@@H](NS(C)(=O)=O)CCCN2C(=O)N2CCCC2)CC1 (relative stereo) [Example 39, N-(cis-2-(((cis-4-isopropylcyclohexyl)oxy)methyl)-1-(pyrrolidin-1-ylcarbonyl)piperidin-3-yl)methanesulfonamide]
EC50 [1]: 940 nM | Emax at 30 µM: 93%

CC(C)[C@H]1CC[C@@H](OC[C@H]2[C@@H](NS(C)(=O)=O)CCCN2C(=O)NC2CC2)CC1 (relative stereo) [Example 99, cis-N-cyclopropyl-2-(((cis-4-isopropylcyclohexyl)oxy)methyl)-3-((methylsulfonyl)amino)piperidine-1-carboxamide]
EC50 [1]: 13 nM | Emax at 30 µM: 112%

CS(=O)(=O)N[C@H]1CCCN(C(=O)C2CC2)[C@H]1COC1CCN(c2ncccn2)CC1(F)F (relative stereo) [Example 211, N-(cis-1-(cyclopropylcarbonyl)-2-(((3,3-difluoro-1-(pyrimidin-2-yl)piperidin-4-yl)oxy)methyl)piperidin-3-yl)methanesulfonamide]
EC50 (FLIPR TETRA, Fluo-4AM): 1100 nM | Emax (FLIPR TETRA, Fluo-4AM): 94%

CCNC(=O)N1CCC[C@H](NS(C)(=O)=O)[C@@H]1COC1CCN(c2ncccn2)CC1 (relative stereo) [Example 118, cis-N-ethyl-3-((methylsulfonyl)amino)-2-(((1-(pyrimidin-2-yl)piperidin-4-yl)oxy)methyl)piperidine-1-carboxamide]
EC50 [1]: 4.6 nM | Emax at 30 µM: 105%

CC(=O)N1CCC[C@H](NS(C)(=O)=O)[C@@H]1CO[C@H]1CC[C@@H](c2cccc(OC(F)(F)F)c2)CC1 (relative stereo) [Example 297, N-(cis-1-acetyl-2-(((cis-4-(3-(trifluoromethoxy)phenyl)cyclohexyl)oxy)methyl)piperidin-3-yl)methanesulfonamide]
EC50 (FLIPR TETRA, Fluo-4AM): 2100 nM | Emax (FLIPR TETRA, Fluo-4AM): 76%

CCNC(=O)N1CCC[C@H](NS(C)(=O)=O)[C@@H]1CO[C@H]1C[C@@H](Cc2ccccc2)C1 (relative stereo) [Example 266, cis-2-(((cis-3-benzylcyclobutyl)oxy)methyl)-N-ethyl-3-((methylsulfonyl)amino)piperidine-1-carboxamide]
EC50 (FLIPR TETRA, Fluo-4AM): 3700 nM | Emax (FLIPR TETRA, Fluo-4AM): 95%

Reference: US10287305B2, “Substituted piperidine compound and use thereof” (Takeda Pharmaceutical Company Limited, priority 2016, dated 2019)
